Experimental data reported in patent US9464306B2, “Method for producing L-amino acid” (KANEKA CORPORATION, priority 2008, dated 2016).
Where two headings read alike, the source gives them in different places.

Tests used:
[1] = Dissolved concentration of the L-amino acid in the reaction mixture after completion of the reaction (HPLC); details: substrate solution pH 8, 45° C.
Method: (§1) Here, the “dissolved concentration” refers to percentage (%) by weight of an amino acid dissolvable in the reaction mixture after completion of the reaction, and can be measured by the following method. That is, the L-amino acid is added to the reaction mixture after completion of the reaction until the L-amino acid is no longer dissolved. After that, the mixture is centrifuged, and the resulting supernatant is filtered. The amino acid present in the filtrate is quantitatively analyzed by high performance liquid chromatography, and the percentage (%) by weight of the amino acid is calculated.

[2] = pH 8
Method: as §1

[3] = L-amino acid dissolvable in reaction mixture after reaction of the N-succinyl-DL-amino acid with liquid cultures of E. coli HB101 (pNHK) and E. coli HB101 (pNIG)

Row | Compound | dissolved concentration [1, 3] | dissolved concentration ([1]; L-amino acid dissolvable in reaction mixture after reaction with liquid culture of E. coli HB101 (pNIGHK)) | dissolved concentration [2]
1 | C=CCCCCC[C@H](N)C(=O)O [L-6-heptenylglycine] | ≤ 0.5 % by weight | ≤ 0.5 % by weight | 
2 | N[C@@H](Cc1cccc(F)c1)C(=O)O [L-3-fluorophenylalanine] | ≤ 0.5 % by weight |  | 
3 | L-2-indanylglycine |  |  | ≤ 0.5 % by weight
4 | N[C@@H](Cc1ccccc1)C(=O)O [L-phenylalanine, reference compound] | 4 % by weight |  | 
5 | N[C@@H](Cc1ccc(Br)cc1)C(=O)O [L-4-bromophenylalanine] | ≤ 0.5 % by weight |  | 
